Patent US6887847B2, “Virus derived antimicrobial peptides” (University of Pittsburgh, priority 2001, dated 2005)
≈ marks a conversion by molar mass, not a printed value. Where two headings read alike, the source gives them in different places. Residues, ends and D or L forms follow the SMILES beside them. No end group written: not given here.

Legend:
[1] = test system: differentiated primary human airway epithelial cells; test: Cystic fibrosis cell culture model: transepithelial resistance; type: cell-based; settings: compared with LL-37
Description: Preparation of eukaryotic cells. Differentiated primary cell cultures of human bronchial epithelial (HBE) cells (CF and non-CF) on an air-liquid interface were prepared in antibiotic free media. See Zabner, J. et al., 1996, J Virol. 70:6994-7003. These filters were incubated with P. aeruginosa followed by washing to remove non-adherent bacteria. Individual filters were next exposed to peptide at increasing concentrations. In order to release viable bacteria, trypsin/EDTA was added and these preparations were plated on standard bacteriologic media to quantify bacterial survival. Similarly prepared cells were monitored for peptide toxicity by measuring transepithelial resistance. The advantage of this model is that it can measure the selective toxicity of peptide for bacterium versus host cells under identical conditions.
Based on above in vitro findings, WLSA-5 (SEQ ID NO:3) was tested in a scenario that more accurately assessed its selective toxicity. For this assay, a cell culture model of bacterial adherence was established that utilized differentiated primary human airway epithelial cells. […] The ability of peptide to kill bacteria is monitored as a function of viable bacteria associated with the epithelial cells after peptide exposure. […]

[2] = test system: Methicillin Resistant S. aureus; type: cell-based, Staphylococcus aureus; settings: 0 mM NaCl (phosphate buffer, low salt)
Excerpt: (§1) The assays for growth inhibition of a microbial target can be used to derive a minimum bactericidal concentration (MBC) value for the peptide, i.e., the concentration of peptide required to kill 99.9% of the microbial sample being tested. This value is well known to those in the art as representative of the effectiveness of a particular antimicrobial agent (e.g., an antibiotic) against a particular organism or group of organisms. In assays to detect the MBC of a peptide, growth inhibition of a bacterial population also can be measured with reference to the number of colony forming units (cfu) after exposure to a peptide relative to a control experiment without a peptide.
Bacterial lysis assay. Bacterial lysis assays were conducted in a manner similar to that described previously (Lehrer, R. I., M. E. Selsted, D. Szklarek, and F. J. 1983. Infect. Immun. 42: 10-4, 1983; Miller, M. A., R. F. Garry, J. M. Jaynes, and R. C. Montelaro, AIDS Res Hum Retroviruses 7: 511-519, 1991). Bacterial suspensions were cultured in Luria-Bertani Broth to mid-log growth phase and washed by two cycles of centrifugation and suspension in 10 mM phosphate buffer. […] Colonies of surviving bacteria (cfu, colony-forming units) were counted and compared to untreated controls to determine the amount of peptide-induced killing under each condition. […]

Staphylococcus aureus = test: Bacterial lysis (broth dilution) assay, MBC; type: cell-based
Excerpt: as §1
(§2) Bacterial lysis assay. Bacterial lysis assays were conducted in a manner similar to that described previously (Lehrer, R. I., M. E. Selsted, D. Szklarek, and F. J. 1983. Infect. Immun. 42: 10-4, 1983; Miller, M. A., R. F. Garry, J. M. Jaynes, and R. C. Montelaro, AIDS Res Hum Retroviruses 7: 511-519, 1991). Bacterial suspensions were cultured in Luria-Bertani Broth to mid-log growth phase and washed by two cycles of centrifugation and suspension in 10 mM phosphate buffer. The Abs600 of the suspension was adjusted with 10 mM phosphate buffer such that, upon dilution, 5-10×10^5 cfu/mL would be treated in the assay. Bacteria were incubated for 1 h with two-fold dilutions of peptides (100 μM to 100 nM) in 96-well plates using 10 mM phosphate buffer, pH 7.2, as a diluent. Ten-fold dilutions of bacteria were performed to 1:1000; a 100 μl aliquot from each condition was spread on the surface of tryptic soy agar plates (Difco, Detroit, Mich.) which were incubated overnight. Colonies of surviving bacteria (cfu, colony-forming units) were counted and compared to untreated controls to determine the amount of peptide-induced killing under each condition. Log killing is defined as the log of the ratio of cfu present before and after treatment with peptide. The minimal bactericidal concentration, MBC, is the peptide concentration at which 99.9% (three log) killing is achieved (Pearson et al., Antimicrob. Agents Chemother. 18: 699-708, 1980).
(§3) A limitation of many host-derived antimicrobial peptides is their decreased activity at physiologic (150 mM) NaCl concentration. See Friedrich et al., Antimicrobial Agents and Chemotherapy 43:1542-1548. The peptides WLSA-5 (SEQ ID NO:3) and LL37 were tested against the two index strains at physiologic NaCl. […] The activity of eLLPs and LBUs of this invention were compared to an expanded list of clinical bacterial isolates. These are summarized in Table 2 by comparing their MBCs in phosphate buffer alone (low salt) and phosphate buffer containing 150 mM NaCl (physiologic conditions). Inspection of this table would lead one skilled in the art to conclude that the activity of eLLPs and LBUs compare favorably to the host derived antimicrobial peptides as it relates to the spectrum and potency of antimicrobial activity.

Pseudomonas aeruginosa = type: cell-based
Excerpt: as §1, §2, §3

[3] = 0 mM NaCl (phosphate buffer, low salt)

Row | Molecule | MBC (Staphylococcus aureus; [3]) | MBC (Staphylococcus aureus; 150 mM NaCl (physiologic)) | MBC (Pseudomonas aeruginosa; 150 mM NaCl (physiologic)) [µM] | also measured
1 | CC[C@H](C)[C@H](NC(=O)[C@H](C)NC(=O)[C@H](CCCNC(=N)N)NC(=O)[C@H](CS)NC(=O)[C@H](Cc1c[nH]c2ccccc12)NC(=O)[C@H](CCCNC(=N)N)NC(=O)[C@H](CCC(N)=O)NC(=O)[C@@H](NC(=O)[C@@H](NC(=O)[C@H](CCCNC(=N)N)NC(=O)[C@@H](NC(=O)[C@H](Cc1c[nH]c2ccccc12)NC(=O)[C@@H](N)CCCNC(=N)N)[C@@H](C)CC)C(C)C)C(C)C)C(=O)N[C@@H](CCCNC(=N)N)C(=O)N[C@@H](Cc1c[nH]cn1)C(=O)N[C@H](C(=O)N[C@@H](Cc1c[nH]c2ccccc12)C(=O)N[C@@H](CCCNC(=N)N)C(=O)N[C@@H](CCCNC(=N)N)C(=O)N[C@H](C(=O)N[C@@H](CCCNC(=N)N)C(=O)N[C@@H](CCC(N)=O)C(=O)NCC(=O)N[C@@H](CC(C)C)C(=O)N[C@@H](CCCNC(=N)N)C(=O)N[C@@H](CCCNC(=N)N)C(=O)N[C@@H](Cc1c[nH]c2ccccc12)C(=O)N[C@@H](CC(C)C)C(=O)N[C@@H](CCCNC(=N)N)C(=O)N[C@H](C(=O)N[C@H](C(=O)O)C(C)C)C(C)C)[C@@H](C)CC)[C@@H](C)CC [WLSA-5] (H-RWIRVVQRWCRAIRHIWRRIRQGLRRWLRVV-OH) | 1000 nM | 1000 nM (≈ 4.18 µg/mL) | 1 (≈ 4.18 µg/mL) | effect on transepithelial resistance [1]: transient and not significantly different from LL-37; MBC [2]: 0.15 µM; MBC (Pseudomonas aeruginosa; [3]): 1 µM
2 | CC(C)[C@H](NC(=O)[C@H](Cc1c[nH]c2ccccc12)NC(=O)[C@H](CCCNC(=N)N)NC(=O)[C@H](CCCNC(=N)N)NC(=O)[C@@H](NC(=O)[C@@H](NC(=O)[C@H](CCCNC(=N)N)NC(=O)[C@@H](NC(=O)[C@@H](NC(=O)[C@@H](N)CCCNC(=N)N)C(C)C)C(C)C)C(C)C)C(C)C)C(=O)N[C@@H](CCCNC(=N)N)C(=O)N[C@@H](CCCNC(=N)N)C(=O)O [WLBU-1] (H-RVVRVVRRWVRR-OH; N-terminus and C-terminus assumed) | 30,000 nanomolar | 10,000 nanomolar |  | 
3 | RRVVRRVRRVVRRVVRVVRRVVRRVRRVVRRVVRVVRRVVRR [LBU-3.5] |  |  | 0.4 | 
4 | CC[C@H](C)[C@H](NC(=O)[C@H](C)NC(=O)[C@H](CCCNC(=N)N)NC(=O)[C@H](CS)NC(=O)[C@H](C)NC(=O)[C@H](CCCNC(=N)N)NC(=O)[C@H](CCC(N)=O)NC(=O)[C@@H](NC(=O)[C@@H](NC(=O)[C@H](CCCNC(=N)N)NC(=O)[C@@H](NC(=O)[C@@H](NC(=O)[C@@H](N)CCCNC(=N)N)C(C)C)[C@@H](C)CC)C(C)C)C(C)C)C(=O)N[C@@H](CCCNC(=N)N)C(=O)N[C@@H](Cc1c[nH]cn1)C(=O)N[C@H](C(=O)N[C@H](C(=O)N[C@@H](CCCNC(=N)N)C(=O)N[C@@H](CCCNC(=N)N)C(=O)N[C@H](C(=O)N[C@@H](CCCNC(=N)N)C(=O)N[C@@H](CCC(N)=O)C(=O)NCC(=O)N[C@@H](CC(C)C)C(=O)N[C@@H](CCCNC(=N)N)C(=O)N[C@@H](CCCNC(=N)N)C(=O)N[C@H](C(=O)N[C@@H](CC(C)C)C(=O)O)[C@@H](C)CC)[C@@H](C)CC)C(C)C)[C@@H](C)CC [SA-5] (H-RVIRVVQRACRAIRHIVRRIRQGLRRIL-OH; N-terminus and C-terminus assumed) | 1000 nM |  | 1 (≈ 3.46 µg/mL) | MBC (Pseudomonas aeruginosa; [3]): 1 µM
5 | LL37: human cathelicidin, processed form a 37-amino acid amphiphilic α-helical cationic host derived antimicrobial peptide (LLGDFFRKSKEKIGKEFKRIVQRIKDFLRNLVPRTES; Antibacterial peptide LL-37; UniProt P49913 134-170, looked up) [reference compound] |  |  |  | P. aeruginosa killing, influence of NaCl (Pseudomonas aeruginosa; low salt vs physiologic (150 mM) NaCl): not affected by NaCl inclusion
6 | CC(C)[C@H](NC(=O)[C@H](CCCNC(=N)N)NC(=O)[C@H](CCCNC(=N)N)NC(=O)[C@@H](NC(=O)[C@@H](NC(=O)[C@H](CCCNC(=N)N)NC(=O)[C@@H](N)CCCNC(=N)N)C(C)C)C(C)C)C(=O)N[C@@H](CCCNC(=N)N)C(=O)N[C@@H](CCCNC(=N)N)C(=O)N[C@H](C(=O)N[C@H](C(=O)N[C@@H](CCCNC(=N)N)C(=O)N[C@@H](CCCNC(=N)N)C(=O)N[C@H](C(=O)N[C@H](C(=O)N[C@@H](CCCNC(=N)N)C(=O)N[C@H](C(=O)N[C@H](C(=O)N[C@@H](CCCNC(=N)N)C(=O)N[C@@H](CCCNC(=N)N)C(=O)N[C@H](C(=O)N[C@H](C(=O)N[C@@H](CCCNC(=N)N)C(=O)N[C@@H](CCCNC(=N)N)C(=O)O)C(C)C)C(C)C)C(C)C)C(C)C)C(C)C)C(C)C)C(C)C)C(C)C [LBU-2] (H-RRVVRRVRRVVRRVVRVVRRVVRR-OH) | 1500 nM |  |  | 
7 | CC(C)[C@H](N)C(=O)N[C@@H](CCCNC(=N)N)C(=O)N[C@@H](CCCNC(=N)N)C(=O)N[C@H](C(=O)N[C@H](C(=O)N[C@@H](CCCNC(=N)N)C(=O)N[C@@H](CCCNC(=N)N)C(=O)N[C@H](C(=O)N[C@H](C(=O)N[C@@H](CCCNC(=N)N)C(=O)N[C@H](C(=O)N[C@H](C(=O)N[C@@H](CCCNC(=N)N)C(=O)N[C@@H](CCCNC(=N)N)C(=O)N[C@H](C(=O)N[C@H](C(=O)N[C@@H](CCCNC(=N)N)C(=O)N[C@@H](CCCNC(=N)N)C(=O)N[C@H](C(=O)N[C@@H](CCCNC(=N)N)C(=O)N[C@@H](CCCNC(=N)N)C(=O)N[C@H](C(=O)N[C@H](C(=O)N[C@@H](CCCNC(=N)N)C(=O)N[C@@H](CCCNC(=N)N)C(=O)N[C@H](C(=O)N[C@H](C(=O)N[C@@H](CCCNC(=N)N)C(=O)N[C@H](C(=O)N[C@H](C(=O)N[C@@H](CCCNC(=N)N)C(=O)N[C@@H](CCCNC(=N)N)C(=O)N[C@H](C(=O)N[C@H](C(=O)N[C@@H](CCCNC(=N)N)C(=O)N[C@@H](CCCNC(=N)N)C(=O)O)C(C)C)C(C)C)C(C)C)C(C)C)C(C)C)C(C)C)C(C)C)C(C)C)C(C)C)C(C)C)C(C)C)C(C)C)C(C)C)C(C)C)C(C)C)C(C)C)C(C)C [LBU-3] (H-VRRVVRRVVRVVRRVVRRVRRVVRRVVRVVRRVVRR-OH; N-terminus and C-terminus assumed) | 1500 nM | 1500 nM (≈ 6.92 µg/mL) |  | 
8 | RVVRVVRRVVRRVRRVVRRVVRVVRRVVRRVRRVVRRVVRVVRRVVRR [LBU-4] | 800 nM | 800 nM |  | 
